Test results taken from BigSolDB 2.1.

Details: in methanol, 313.15 K

| Structure (SMILES) | solubility (mole fraction) |
| --- | --- |
| COc1ccc(-c2nn(-c3ccccc3)cc2/C=C/C(=O)c2nc3ccccc3[nH]2)cc1 | 0.00016 |
| COc1ccc(-c2nn(-c3ccccc3)cc2/C=C/C(=O)c2nc3ccccc3[nH]2)cc1OC | 4.47e-05 |
| O=C(/C=C/c1cn(-c2ccccc2)nc1-c1cccc([N+](=O)[O-])c1)c1nc2ccccc2[nH]1 | 5.9e-05 |
| O=C(/C=C/c1cn(-c2ccccc2)nc1-c1ccccc1)c1nc2ccccc2[nH]1 | 8.83e-05 |

Same assay, conditions: in methanol, 318.15 K

| Structure (SMILES) | solubility (mole fraction) |
| --- | --- |
| COc1cccc(-c2nn(-c3ccccc3)cc2/C=C/C(=O)c2nc3ccccc3[nH]2)c1 | 4.62e-05 |
| O=C(/C=C/c1cn(-c2ccccc2)nc1-c1ccc(Cl)cc1)c1nc2ccccc2[nH]1 | 9.36e-05 |
| O=C(/C=C/c1cn(-c2ccccc2)nc1-c1ccccc1Cl)c1nc2ccccc2[nH]1 | 0.000168 |
| COc1ccc(-c2nn(-c3ccccc3)cc2/C=C/C(=O)c2nc3ccccc3[nH]2)cc1 | 0.000167 |
| COc1ccc(-c2nn(-c3ccccc3)cc2/C=C/C(=O)c2nc3ccccc3[nH]2)cc1OC | 5.02e-05 |
| O=C(/C=C/c1cn(-c2ccccc2)nc1-c1cccc([N+](=O)[O-])c1)c1nc2ccccc2[nH]1 | 6.59e-05 |
| O=C(/C=C/c1cn(-c2ccccc2)nc1-c1ccccc1)c1nc2ccccc2[nH]1 | 9.87e-05 |

Same assay, conditions: in methanol, 323.15 K

| Structure (SMILES) | solubility (mole fraction) |
| --- | --- |
| COc1cccc(-c2nn(-c3ccccc3)cc2/C=C/C(=O)c2nc3ccccc3[nH]2)c1 | 5.15e-05 |
| O=C(/C=C/c1cn(-c2ccccc2)nc1-c1ccc(Cl)cc1)c1nc2ccccc2[nH]1 | 0.000105 |
| O=C(/C=C/c1cn(-c2ccccc2)nc1-c1ccccc1Cl)c1nc2ccccc2[nH]1 | 0.000187 |
| COc1ccc(-c2nn(-c3ccccc3)cc2/C=C/C(=O)c2nc3ccccc3[nH]2)cc1 | 0.00017 |
| COc1ccc(-c2nn(-c3ccccc3)cc2/C=C/C(=O)c2nc3ccccc3[nH]2)cc1OC | 5.5e-05 |
| O=C(/C=C/c1cn(-c2ccccc2)nc1-c1cccc([N+](=O)[O-])c1)c1nc2ccccc2[nH]1 | 7.4e-05 |
| O=C(/C=C/c1cn(-c2ccccc2)nc1-c1ccccc1)c1nc2ccccc2[nH]1 | 0.000115 |

Same assay, conditions: in methanol, 328.15 K

| Structure (SMILES) | solubility (mole fraction) |
| --- | --- |
| COc1cccc(-c2nn(-c3ccccc3)cc2/C=C/C(=O)c2nc3ccccc3[nH]2)c1 | 5.81e-05 |
| O=C(/C=C/c1cn(-c2ccccc2)nc1-c1ccc(Cl)cc1)c1nc2ccccc2[nH]1 | 0.000117 |
| O=C(/C=C/c1cn(-c2ccccc2)nc1-c1ccccc1Cl)c1nc2ccccc2[nH]1 | 0.000209 |
| COc1ccc(-c2nn(-c3ccccc3)cc2/C=C/C(=O)c2nc3ccccc3[nH]2)cc1 | 0.000177 |
| COc1ccc(-c2nn(-c3ccccc3)cc2/C=C/C(=O)c2nc3ccccc3[nH]2)cc1OC | 6.53e-05 |
| O=C(/C=C/c1cn(-c2ccccc2)nc1-c1cccc([N+](=O)[O-])c1)c1nc2ccccc2[nH]1 | 8.21e-05 |
| O=C(/C=C/c1cn(-c2ccccc2)nc1-c1ccccc1)c1nc2ccccc2[nH]1 | 0.000123 |

Same assay, conditions: in n-butanol, 298.15 K

| Structure (SMILES) | solubility (mole fraction) |
| --- | --- |
| COc1cccc(-c2nn(-c3ccccc3)cc2/C=C/C(=O)c2nc3ccccc3[nH]2)c1 | 0.00017 |
| O=C(/C=C/c1cn(-c2ccccc2)nc1-c1ccc(Cl)cc1)c1nc2ccccc2[nH]1 | 0.00015 |
| O=C(/C=C/c1cn(-c2ccccc2)nc1-c1ccccc1Cl)c1nc2ccccc2[nH]1 | 0.000294 |
| COc1ccc(-c2nn(-c3ccccc3)cc2/C=C/C(=O)c2nc3ccccc3[nH]2)cc1 | 0.00133 |
| COc1ccc(-c2nn(-c3ccccc3)cc2/C=C/C(=O)c2nc3ccccc3[nH]2)cc1OC | 0.00016 |
| O=C(/C=C/c1cn(-c2ccccc2)nc1-c1cccc([N+](=O)[O-])c1)c1nc2ccccc2[nH]1 | 0.000202 |
| O=C(/C=C/c1cn(-c2ccccc2)nc1-c1ccccc1)c1nc2ccccc2[nH]1 | 0.000248 |

Same assay, conditions: in n-butanol, 303.15 K

| Structure (SMILES) | solubility (mole fraction) |
| --- | --- |
| COc1cccc(-c2nn(-c3ccccc3)cc2/C=C/C(=O)c2nc3ccccc3[nH]2)c1 | 0.000185 |
| O=C(/C=C/c1cn(-c2ccccc2)nc1-c1ccc(Cl)cc1)c1nc2ccccc2[nH]1 | 0.000175 |
| O=C(/C=C/c1cn(-c2ccccc2)nc1-c1ccccc1Cl)c1nc2ccccc2[nH]1 | 0.00033 |
| COc1ccc(-c2nn(-c3ccccc3)cc2/C=C/C(=O)c2nc3ccccc3[nH]2)cc1 | 0.00136 |
| COc1ccc(-c2nn(-c3ccccc3)cc2/C=C/C(=O)c2nc3ccccc3[nH]2)cc1OC | 0.000209 |
| O=C(/C=C/c1cn(-c2ccccc2)nc1-c1cccc([N+](=O)[O-])c1)c1nc2ccccc2[nH]1 | 0.000236 |
| O=C(/C=C/c1cn(-c2ccccc2)nc1-c1ccccc1)c1nc2ccccc2[nH]1 | 0.000275 |

Same assay, conditions: in n-butanol, 308.15 K

| Structure (SMILES) | solubility (mole fraction) |
| --- | --- |
| COc1cccc(-c2nn(-c3ccccc3)cc2/C=C/C(=O)c2nc3ccccc3[nH]2)c1 | 0.000211 |
| O=C(/C=C/c1cn(-c2ccccc2)nc1-c1ccc(Cl)cc1)c1nc2ccccc2[nH]1 | 0.000201 |
| O=C(/C=C/c1cn(-c2ccccc2)nc1-c1ccccc1Cl)c1nc2ccccc2[nH]1 | 0.000354 |
| COc1ccc(-c2nn(-c3ccccc3)cc2/C=C/C(=O)c2nc3ccccc3[nH]2)cc1 | 0.00138 |
| COc1ccc(-c2nn(-c3ccccc3)cc2/C=C/C(=O)c2nc3ccccc3[nH]2)cc1OC | 0.000244 |
| O=C(/C=C/c1cn(-c2ccccc2)nc1-c1cccc([N+](=O)[O-])c1)c1nc2ccccc2[nH]1 | 0.000279 |
| O=C(/C=C/c1cn(-c2ccccc2)nc1-c1ccccc1)c1nc2ccccc2[nH]1 | 0.000299 |

Same assay, conditions: in n-butanol, 313.15 K

| Structure (SMILES) | solubility (mole fraction) |
| --- | --- |
| COc1cccc(-c2nn(-c3ccccc3)cc2/C=C/C(=O)c2nc3ccccc3[nH]2)c1 | 0.00023 |
| O=C(/C=C/c1cn(-c2ccccc2)nc1-c1ccc(Cl)cc1)c1nc2ccccc2[nH]1 | 0.000216 |
| O=C(/C=C/c1cn(-c2ccccc2)nc1-c1ccccc1Cl)c1nc2ccccc2[nH]1 | 0.0004 |
| COc1ccc(-c2nn(-c3ccccc3)cc2/C=C/C(=O)c2nc3ccccc3[nH]2)cc1 | 0.00142 |
| COc1ccc(-c2nn(-c3ccccc3)cc2/C=C/C(=O)c2nc3ccccc3[nH]2)cc1OC | 0.00028 |
| O=C(/C=C/c1cn(-c2ccccc2)nc1-c1cccc([N+](=O)[O-])c1)c1nc2ccccc2[nH]1 | 0.000324 |
| O=C(/C=C/c1cn(-c2ccccc2)nc1-c1ccccc1)c1nc2ccccc2[nH]1 | 0.000335 |

Same assay, conditions: in n-butanol, 318.15 K

| Structure (SMILES) | solubility (mole fraction) |
| --- | --- |
| COc1cccc(-c2nn(-c3ccccc3)cc2/C=C/C(=O)c2nc3ccccc3[nH]2)c1 | 0.000258 |
| O=C(/C=C/c1cn(-c2ccccc2)nc1-c1ccc(Cl)cc1)c1nc2ccccc2[nH]1 | 0.00024 |
| O=C(/C=C/c1cn(-c2ccccc2)nc1-c1ccccc1Cl)c1nc2ccccc2[nH]1 | 0.000445 |
| COc1ccc(-c2nn(-c3ccccc3)cc2/C=C/C(=O)c2nc3ccccc3[nH]2)cc1 | 0.00145 |
| COc1ccc(-c2nn(-c3ccccc3)cc2/C=C/C(=O)c2nc3ccccc3[nH]2)cc1OC | 0.000321 |
| O=C(/C=C/c1cn(-c2ccccc2)nc1-c1cccc([N+](=O)[O-])c1)c1nc2ccccc2[nH]1 | 0.000359 |
| O=C(/C=C/c1cn(-c2ccccc2)nc1-c1ccccc1)c1nc2ccccc2[nH]1 | 0.000374 |

Same assay, conditions: in n-butanol, 323.15 K

| Structure (SMILES) | solubility (mole fraction) |
| --- | --- |
| COc1cccc(-c2nn(-c3ccccc3)cc2/C=C/C(=O)c2nc3ccccc3[nH]2)c1 | 0.000285 |
| O=C(/C=C/c1cn(-c2ccccc2)nc1-c1ccc(Cl)cc1)c1nc2ccccc2[nH]1 | 0.000258 |
| O=C(/C=C/c1cn(-c2ccccc2)nc1-c1ccccc1Cl)c1nc2ccccc2[nH]1 | 0.0005 |
| COc1ccc(-c2nn(-c3ccccc3)cc2/C=C/C(=O)c2nc3ccccc3[nH]2)cc1 | 0.00149 |
| COc1ccc(-c2nn(-c3ccccc3)cc2/C=C/C(=O)c2nc3ccccc3[nH]2)cc1OC | 0.00035 |
| O=C(/C=C/c1cn(-c2ccccc2)nc1-c1cccc([N+](=O)[O-])c1)c1nc2ccccc2[nH]1 | 0.000402 |
| O=C(/C=C/c1cn(-c2ccccc2)nc1-c1ccccc1)c1nc2ccccc2[nH]1 | 0.000425 |

Same assay, conditions: in n-butanol, 328.15 K

| Structure (SMILES) | solubility (mole fraction) |
| --- | --- |
| COc1cccc(-c2nn(-c3ccccc3)cc2/C=C/C(=O)c2nc3ccccc3[nH]2)c1 | 0.000311 |
| O=C(/C=C/c1cn(-c2ccccc2)nc1-c1ccc(Cl)cc1)c1nc2ccccc2[nH]1 | 0.000295 |
| O=C(/C=C/c1cn(-c2ccccc2)nc1-c1ccccc1Cl)c1nc2ccccc2[nH]1 | 0.000533 |
| COc1ccc(-c2nn(-c3ccccc3)cc2/C=C/C(=O)c2nc3ccccc3[nH]2)cc1 | 0.00151 |
| COc1ccc(-c2nn(-c3ccccc3)cc2/C=C/C(=O)c2nc3ccccc3[nH]2)cc1OC | 0.00039 |
| O=C(/C=C/c1cn(-c2ccccc2)nc1-c1cccc([N+](=O)[O-])c1)c1nc2ccccc2[nH]1 | 0.000445 |
| O=C(/C=C/c1cn(-c2ccccc2)nc1-c1ccccc1)c1nc2ccccc2[nH]1 | 0.000465 |

Same assay, conditions: in n-pentanol, 298.15 K

| Structure (SMILES) | solubility (mole fraction) |
| --- | --- |
| COc1cccc(-c2nn(-c3ccccc3)cc2/C=C/C(=O)c2nc3ccccc3[nH]2)c1 | 0.000227 |
| O=C(/C=C/c1cn(-c2ccccc2)nc1-c1ccc(Cl)cc1)c1nc2ccccc2[nH]1 | 0.000253 |
| O=C(/C=C/c1cn(-c2ccccc2)nc1-c1ccccc1Cl)c1nc2ccccc2[nH]1 | 0.000354 |
| COc1ccc(-c2nn(-c3ccccc3)cc2/C=C/C(=O)c2nc3ccccc3[nH]2)cc1 | 0.00156 |
| COc1ccc(-c2nn(-c3ccccc3)cc2/C=C/C(=O)c2nc3ccccc3[nH]2)cc1OC | 0.00031 |
| O=C(/C=C/c1cn(-c2ccccc2)nc1-c1cccc([N+](=O)[O-])c1)c1nc2ccccc2[nH]1 | 0.000281 |
| O=C(/C=C/c1cn(-c2ccccc2)nc1-c1ccccc1)c1nc2ccccc2[nH]1 | 0.000257 |

Same assay, conditions: in n-pentanol, 303.15 K

| Structure (SMILES) | solubility (mole fraction) |
| --- | --- |
| COc1cccc(-c2nn(-c3ccccc3)cc2/C=C/C(=O)c2nc3ccccc3[nH]2)c1 | 0.000274 |
| O=C(/C=C/c1cn(-c2ccccc2)nc1-c1ccc(Cl)cc1)c1nc2ccccc2[nH]1 | 0.000275 |
| O=C(/C=C/c1cn(-c2ccccc2)nc1-c1ccccc1Cl)c1nc2ccccc2[nH]1 | 0.0004 |
| COc1ccc(-c2nn(-c3ccccc3)cc2/C=C/C(=O)c2nc3ccccc3[nH]2)cc1 | 0.00162 |
| COc1ccc(-c2nn(-c3ccccc3)cc2/C=C/C(=O)c2nc3ccccc3[nH]2)cc1OC | 0.00033 |
